# Results as given in patent US8986696B2, “Trans-capsular administration of p38 map kinase inhibitors into orthopedic joints” (DePuy Mitek, Inc., priority 2007, dated 2015).
# Assays:
# [1] = test system: LPS-induced IL-1 in hPBMC; experiment: LPS-induced IL-1 in hPBMC; format: cell-based, human
# [2] = test system: injured cartilage explants, PGE2 synthesis; experiment: drop tower design model: PGE2 synthesis; format: cell-based, bovine; conditions: cocktail of cytokines
# Description: The device comprises a vertical rail that guides a sliding weight from 0.1 kg to 3 kg directly onto a force transducer which is situated at the bottom of the device. A sphere-shaped 2 mm indenter resting on a specimen is located at the bottom of the vertical rail. The indenter is held by a stop screw. The specimen is rigidly attached to a tissue holder underneath the indenter, to avoid side movements, the specimen is rigidly attached to the tissue holder. In this manner, the force transducer transduces a force indirectly onto the specimen. Adjusting the weight of a mass and height from which the mass drops varies the magnitude of the intended impact. For example, a weight mass (e.g., […]) held by a weight holder can be released from a height of e.g., 36 cm and dropped onto the force transducer. […]
# In the first method, bovine or human PBMCs were freshly prepared using Ficoll gradient by Lampire Biological Laboratories, Inc. PBMCs in RPMI w/10% FCS at delivery were spun down at 1500 rpm for twenty minutes and the cell pellet was washed twice with 1×PBS to wash off the residual Ficoll. […] Each conditioned medium was assessed for levels of pro-inflammatory cytokines to ensure their secretion from PBMC. […]
# PGE2 was measured with STAT-Prostaglandin E2 EIA ELISA kit (Cayman Biochemicals), as described in Example III above. […]
# [3] = test system: injured cartilage explants; format: cell-based
# Description: The device comprises a vertical rail that guides a sliding weight from 0.1 kg to 3 kg directly onto a force transducer which is situated at the bottom of the device. A sphere-shaped 2 mm indenter resting on a specimen is located at the bottom of the vertical rail. The indenter is held by a stop screw. The specimen is rigidly attached to a tissue holder underneath the indenter, to avoid side movements, the specimen is rigidly attached to the tissue holder. In this manner, the force transducer transduces a force indirectly onto the specimen. Adjusting the weight of a mass and height from which the mass drops varies the magnitude of the intended impact. For example, a weight mass (e.g., […]) held by a weight holder can be released from a height of e.g., 36 cm and dropped onto the force transducer.
structure (smiles),measurement,setting,value
CC(=O)N1CCN(c2c(-c3ccncc3)c(-c3ccc(F)cc3)c(C#N)n2C)CC1 [JNJ 17089540 (RWJ 669307)],IC50,[1],0.25 µM
"OCCC#Cc1nc(-c2ccc(F)cc2)c(-c2ccncc2)n1CCCc1ccccc1 [JNJ 3026582 (RWJ 67657), 4-[4-(4-fluorophenyl)-1-(3-phenylpropyl)-5-(4-pyridinyl)-1H-imidazol-2-yl]-3-butyn-1-ol]","PGE2 synthesis, inhibition",[2],dose-dependently inhibited
"CC(=O)Oc1cccc2c1C(=O)c1c(OC(C)=O)cc(C(=O)O)cc1C2=O [Diacerein, reference compound]","cytotoxicity (LDH, words)",[3],tolerant
